Measurements: PubChem BioAssay AID330 (DTP/NCI, 2004)
“And” between values parts separate entries of the source, which are not always exact repeats. Identical values can stand only once. Toxic doses and inconclusive results are not listed.

Test system: P388 leukemia ip, CD2F1 mice, survival T/C
Assay: NCI In Vivo Anticancer Drug Screen. Data for tumor model P388 Leukemia (intraperitoneal) in CD2F1 (CDF1) mice
Details: endpoint: median survival time, higher = longer survival
Outline: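 Mice carrying the transplanted tumor received test compound or vehicle. Survival was recorded in each group, and the value is the treated-group measurement divided by that of the vehicle-treated control group.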

COC1/C=C\OC2(C)Oc3c(C)c(O)c4c(c3C2=O)C(=O)C=C(NC(=O)C(C)=C/C=C\C(C)C(=O)C(C)C2OC(C)(C)OC(C1C)C2C)C4=O (stereo unspecified)
T/C (dose: 6.25 mg/kg/injection, schedule: Q04DX003 (ip), vehicle: other): 100 % of control
T/C (dose: 12.5 mg/kg/injection, schedule: Q04DX003 (ip), vehicle: distilled water + Tween-80): 106 % of control and 110 % of control
T/C (dose: 12.5 mg/kg/injection, schedule: Q04DX003 (ip), vehicle: other): 107 % of control
T/C (dose: 25.0 mg/kg/injection, schedule: Q04DX003 (ip), vehicle: distilled water + Tween-80): 101 % of control and 121 % of control
T/C (dose: 25.0 mg/kg/injection, schedule: Q04DX003 (ip), vehicle: other): 156 % of control
T/C (dose: 50.0 mg/kg/injection, schedule: Q04DX003 (ip), vehicle: distilled water + Tween-80): 91 % of control and 95 % of control
T/C (dose: 50.0 mg/kg/injection, schedule: Q04DX003 (ip), vehicle: other): 108 % of control
T/C (dose: 100.0 mg/kg/injection, schedule: Q04DX003 (ip), vehicle: distilled water + Tween-80): 103 % of control and 97 % of control
T/C (dose: 100.0 mg/kg/injection, schedule: Q04DX003 (ip), vehicle: other): 118 % of control
T/C (dose: 200.0 mg/kg/injection, schedule: Q04DX003 (ip), vehicle: distilled water + Tween-80): 113 % of control and 117 % of control

COc1ccc(C(C)=O)cc1CN1CCN(Cc2cc(C(C)=O)ccc2OC)CC1
T/C (dose: 50.0 mg/kg/injection, schedule: Q01DX005 (ip), vehicle: Klucel (hydroxypropylcellulose) (HPC)): 104 % of control
T/C (dose: 100.0 mg/kg/injection, schedule: Q01DX005 (ip), vehicle: Klucel (hydroxypropylcellulose) (HPC)): 105 % of control
T/C (dose: 200.0 mg/kg/injection, schedule: Q01DX005 (ip), vehicle: Klucel (hydroxypropylcellulose) (HPC)): 99 % of control

Cc1ccc(S(=O)(=O)CC(O)(C(C)C)C(C)C)cc1
T/C (dose: 50.0 mg/kg/injection, schedule: Q01DX005 (ip), vehicle: saline with Tween-80): 103 % of control
T/C (dose: 100.0 mg/kg/injection, schedule: Q01DX005 (ip), vehicle: saline with Tween-80): 102 % of control
T/C (dose: 200.0 mg/kg/injection, schedule: Q01DX005 (ip), vehicle: saline with Tween-80): 102 % of control

O=C(O)CSc1ccc([N+](=O)[O-])cc1[N+](=O)[O-]
T/C (dose: 60.0 mg/kg/injection, schedule: Q01DX005 (ip), vehicle: Klucel (hydroxypropylcellulose) (HPC)): 107 % of control
T/C (dose: 60.0 mg/kg/injection, schedule: Q01DX005 (ip), vehicle: saline with Tween-80): 96 % of control
T/C (dose: 120.0 mg/kg/injection, schedule: Q01DX005 (ip), vehicle: Klucel (hydroxypropylcellulose) (HPC)): 103 % of control
T/C (dose: 120.0 mg/kg/injection, schedule: Q01DX005 (ip), vehicle: saline with Tween-80): 86 % of control
T/C (dose: 240.0 mg/kg/injection, schedule: Q01DX005 (ip), vehicle: Klucel (hydroxypropylcellulose) (HPC)): 109 % of control
T/C (dose: 240.0 mg/kg/injection, schedule: Q01DX005 (ip), vehicle: saline with Tween-80): 95 % of control

Cc1ccc([N+](=O)[O-])cc1NC(=O)Oc1cc(C)c(Br)c(C)c1
T/C (dose: 50.0 mg/kg/injection, schedule: Q01DX009 (ip), vehicle: saline with Tween-80): 106 % of control
T/C (dose: 100.0 mg/kg/injection, schedule: Q01DX009 (ip), vehicle: saline with Tween-80): 106 % of control
T/C (dose: 200.0 mg/kg/injection, schedule: Q01DX009 (ip), vehicle: saline with Tween-80): 112 % of control

ClCCN(CCCN(CCCl)c1ccccc1)c1ccccc1
T/C (dose: 200.0 mg/kg/injection, schedule: Q01DX001 (ip), vehicle: saline with Tween-80): 164 % of control
T/C (dose: 400.0 mg/kg/injection, schedule: Q01DX001 (ip), vehicle: saline with Tween-80): 150 % of control and 157 % of control
T/C (dose: 800.0 mg/kg/injection, schedule: Q01DX001 (ip), vehicle: saline with Tween-80): 160 % of control

O=C(O)c1cc(=O)c2c(OCC(O)COc3cccc4oc(C(=O)O)cc(=O)c34)cccc2o1.[Cu+2]
T/C (dose: 12.5 mg/kg/injection, schedule: Q04DX002 (ip), vehicle: Klucel (hydroxypropylcellulose) (HPC)): 99 % of control
T/C (dose: 25.0 mg/kg/injection, schedule: Q04DX002 (ip), vehicle: Klucel (hydroxypropylcellulose) (HPC)): 96 % of control
T/C (dose: 50.0 mg/kg/injection, schedule: Q04DX002 (ip), vehicle: Klucel (hydroxypropylcellulose) (HPC)): 95 % of control

CCCCCCC[CH2][Sn]([S][Sn]([CH2]CCCCCCC)([c]1ccccc1)[c]1ccccc1)([c]1ccccc1)[c]1ccccc1
T/C (dose: 6.25 mg/kg/injection, schedule: Q01DX009 (ip), vehicle: saline): 101 % of control
T/C (dose: 12.5 mg/kg/injection, schedule: Q01DX009 (ip), vehicle: saline): 98 % of control
T/C (dose: 25.0 mg/kg/injection, schedule: Q01DX009 (ip), vehicle: saline): 101 % of control
T/C (dose: 200.0 mg/kg/injection, schedule: Q01DX009 (ip), vehicle: saline): 86 % of control

CCN(CC)CCCC(C)Nc1c2ccc(Cl)cc2nc2cc(N=Nc3cccc4ccccc34)c(OC)cc12 (stereo unspecified)
T/C (dose: 25.0 mg/kg/injection, schedule: Q04DX003 (ip), vehicle: saline with Tween-80): 92 % of control
T/C (dose: 50.0 mg/kg/injection, schedule: Q04DX003 (ip), vehicle: saline with Tween-80): 92 % of control
T/C (dose: 100.0 mg/kg/injection, schedule: Q04DX003 (ip), vehicle: saline with Tween-80): 118 % of control

CN1/C(=C2\C=CC=C\C2=N/S(=O)(=O)c2ccc(Cl)cc2)Sc2ccccc21
T/C (dose: 100.0 mg/kg/injection, schedule: Q04DX003 (ip), vehicle: saline): 103 % of control
T/C (dose: 200.0 mg/kg/injection, schedule: Q04DX003 (ip), vehicle: saline): 104 % of control
T/C (dose: 400.0 mg/kg/injection, schedule: Q04DX003 (ip), vehicle: saline): 99 % of control
